Reference: patent publication US20100184675A1, “USE OF GLUCAGON (1-29) ALONE OR IN COMBINATION WITH NEUROPEPTIDE W30 AS A THERAPEUTIC AGENT” (priority 2007, published 2010)
Ends that are not written are not given here.

Columns and labels:
HIV-1IIIB = test: HIV-1 antiviral assay in CEM-SS cells; conditions: peptides 10 micrograms per ml, 6 days post-infection
HCMV strain AD169 = test: HCMV plaque formation assay in MRC-5 cells; conditions: peptides 10 micrograms per ml, 7-10 days
[1] = system: hepatitis B virus (HBV) ayw strain; test: HBV experimental assay system (HepG2-2.2.15, secreted HBV DNA by TaqMan PCR); type: cell-based; conditions: 10 micrograms per ml; 6 days; combination 0.95 mole peptide 1 and 1.05 mole peptide 2
Procedure: HepG2-2.2.15 cells were plated in 96-well microtiter plates. After 16-24 hours the confluent monolayer of HepG2-2.2.15 cells was washed and the medium was replaced with complete medium containing test peptides—10 micrograms per ml—in duplicate. Lamivudine (3TC) was used as the positive control, while media alone was added to the cells as a negative control (virus control). Three days later the culture medium was replaced with fresh medium containing the peptides. Six days following the initial administration of the peptides, the cell culture supernatants was collected, treated with pronase and DNAse and then used in a real-time quantitative TaqMan PCR assay. The PCR-amplified HBV DNA was detected in real-time by monitoring increases in fluorescence signals that result from the exonucleolytic degradation of a quenched fluorescence probe molecule that hybridizes to the amplified HBV DNA. For each PCR amplification, a standard curve was simultaneously generated using dilutions of purified HBV DNA. Antiviral activity was calculated from the reduction in HBV DNA levels (% virus control). A novel dye uptake assay was then employed to measure cell viability, which is used to calculate toxicity (% cell control).

murine spleen cells = test: Th1/Th2 cytokine profiling assay (Ovalbumin-restimulated spleen cells); type: cell-based, Balb/c mice; conditions: 10 micrograms per ml; 72 hours; combination 0.95 mole peptide 1 and 1.05 mole peptide 2
Procedure: On day 50, spleens of the mice were harvested (3 weeks after last boost with Ovalbumin). Cells were cultured (2×10^5/well in triplicate) and incubated with culture medium or test peptides—10 micrograms per ml—for 30 min. Thereafter, additional Ovalbumin was added to the cells at 10 micrograms/ml for in vitro restimulation of the cells. 72 hours later, cell supernatants were harvested and assayed using the Becton Dickinson Mouse Th1/Th2 Cytokine CBA Kit.

[2] = system: Primary Human endothelial cells (HUVEC); test: Endothelial cell migration assay; type: cell-based; conditions: 10 micrograms per ml; 22 hours
HUVEC = test: Endothelial tube formation assay; type: cell-based, human; conditions: 10 micrograms per ml; 20 hours
Procedure: The endothelial tube formation assay is based on the ability of endothelial cells to form three-dimensional capillary-like tubular structures when cultured on a gel of basement membrane extract. […] Pre-labeled HUVEC with Calcein AM were seeded in a 96-well culture plate coated with extracellular metrix (Chemicon international Cat. […] Positive control was vehicle only. […] Duplicate wells for each treatment were photographed and quantitatevily analyzed for an average tubule length using image analysis software ImageProPlus. Raw data were expressed as average tubule lengths in pixels ±standard deviation. Statistic p values were computed using the Student's t-test.

CC(C)(C)NC(=O)[C@@H]1CN(Cc2cccnc2)CCN1C[C@@H](O)C[C@@H](Cc1ccccc1)C(=O)N[C@H]1c2ccccc2C[C@H]1O [indinavir]
inhibition of HIV-1 activity on tested T-cells (HIV-1IIIB): expected levels of antiviral activity

Nc1nc(O)c2ncn(COC(CO)CO)c2n1 [Ganciclovir, reference compound]
inhibition of HCMV plaque formation as compared to the virus control (HCMV strain AD169): expected levels of antiviral activity

Cc1cn([C@H]2C[C@H](N=[N+]=[N-])[C@@H](CO)O2)c(=O)[nH]c1=O [AZT]
inhibition of HIV-1 activity on tested T-cells (HIV-1IIIB): expected levels of antiviral activity

Trp-Tyr-Lys-His-Val-Ala-Ser-Pro-Arg-Tyr-His-Thr-Val-Gly-Arg-Ala-Ala-Gly-Leu-Leu-Met-Gly-Leu-Arg-Arg-Ser-Pro-Tyr-Leu-Trp-OH (WYKHVASPRYHTVGRAAGLLMGLRRSPYLW-OH) [Peptide 2, Neuropeptide W-30, commercially available known peptide]
inhibition of HBV replication as compared to the virus control infection [1]: 10.7% | inhibition of HCMV plaque formation as compared to the virus control (HCMV strain AD169): did not inhibit | change of the production of IFN-γ (figure = decreased by) (murine spleen cells): 25.5% | change of the production of IL-2 (figures = increased by) (murine spleen cells): 82.1% | change of the production of IL-4 (figure = induced by) (murine spleen cells): did not significantly change | change of the production of IL-5 (figures = decreased by) (murine spleen cells): 29.3% | change of the production of TNF-alpha (murine spleen cells): did not significantly change | inhibition of the migration of human endothelial cells [2]: 17% | inhibition of the tube formation of human endothelial cells (HUVEC): 16%
